Test results as given in PubChem BioAssay AID330 (DTP/NCI, 2004).
Several values for one entry are separate records, joined by “and”; a condition that tells them apart may be missing. Equal values may be shown once. Inconclusive results and toxic doses are left out. How the source made its calls: active means survival T/C of 150% or more; inactive means T/C below 125% in these data.

System: P388 leukemia ip, CD2F1 mice, survival T/C
Assay: NCI In Vivo Anticancer Drug Screen. Data for tumor model P388 Leukemia (intraperitoneal) in CD2F1 (CDF1) mice
Conditions: endpoint: median survival time, higher = longer survival
In short: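 Mice carrying the transplanted tumor received test compound or vehicle. Survival was recorded in each group, and the value is the treated-group measurement divided by that of the vehicle-treated control group.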

[1] = dose: 25.0 mg/kg/injection, schedule: Q04DX003 (ip), vehicle: saline
[2] = dose: 50.0 mg/kg/injection, schedule: Q04DX003 (ip), vehicle: saline
[3] = dose: 100.0 mg/kg/injection, schedule: Q04DX003 (ip), vehicle: saline
[4] = dose: 50.0 mg/kg/injection, schedule: Q01DX005 (ip), vehicle: saline with Tween-80
[5] = dose: 100.0 mg/kg/injection, schedule: Q01DX005 (ip), vehicle: saline with Tween-80
[6] = dose: 60.0 mg/kg/injection, schedule: Q01DX005 (ip), vehicle: saline with Tween-80
[7] = dose: 120.0 mg/kg/injection, schedule: Q01DX005 (ip), vehicle: saline with Tween-80
[8] = dose: 240.0 mg/kg/injection, schedule: Q01DX005 (ip), vehicle: saline with Tween-80
[9] = dose: 100.0 mg/kg/injection, schedule: Q04DX002 (ip), vehicle: Klucel (hydroxypropylcellulose) (HPC)
[10] = dose: 200.0 mg/kg/injection, schedule: Q01DX009 (ip), vehicle: Klucel (hydroxypropylcellulose) (HPC)
[11] = dose: 50.0 mg/kg/injection, schedule: Q01DX009 (ip), vehicle: saline with Tween-80
[12] = dose: 100.0 mg/kg/injection, schedule: Q01DX009 (ip), vehicle: saline with Tween-80
[13] = dose: 200.0 mg/kg/injection, schedule: Q01DX009 (ip), vehicle: saline with Tween-80
[14] = dose: 100.0 mg/kg/injection, schedule: Q04DX003 (ip), vehicle: saline with Tween-80
[15] = dose: 200.0 mg/kg/injection, schedule: Q04DX003 (ip), vehicle: saline with Tween-80
[16] = dose: 400.0 mg/kg/injection, schedule: Q04DX003 (ip), vehicle: saline with Tween-80
[17] = dose: 60.0 mg/kg/injection, schedule: Q01DX005 (ip), vehicle: Klucel (hydroxypropylcellulose) (HPC)
[18] = dose: 120.0 mg/kg/injection, schedule: Q01DX005 (ip), vehicle: Klucel (hydroxypropylcellulose) (HPC)
[19] = dose: 240.0 mg/kg/injection, schedule: Q01DX005 (ip), vehicle: Klucel (hydroxypropylcellulose) (HPC)

Measured: T/C

C=Cc1ccc(Oc2ccccc2)cc1
inactive: [1] 100 % of control | [2] 95 % of control | [3] 109 % of control

CC1C2C=CC1C=C2 (configuration not stated)
inactive: dose: 50.0 mg/kg/injection, schedule: Q01DX009 (ip), vehicle: saline 98 % of control | dose: 100.0 mg/kg/injection, schedule: Q01DX009 (ip), vehicle: saline 91 % of control | dose: 200.0 mg/kg/injection, schedule: Q01DX009 (ip), vehicle: saline 98 % of control

O=c1oc2nc(-c3ccccc3)[nH]c(=O)c2c2c1CCCC2
inactive: dose: 15.0 mg/kg/injection, schedule: Q01DX005 (ip), vehicle: Klucel (hydroxypropylcellulose) (HPC) 92 % of control | dose: 30.0 mg/kg/injection, schedule: Q01DX005 (ip), vehicle: Klucel (hydroxypropylcellulose) (HPC) 86 % of control

CCCC(=O)C#C[Si](C)(C)C
inactive: [4] 103 % of control | [5] 103 % of control

O=[N+]([O-])c1cccnc1-n1nnc2c([N+](=O)[O-])cccc21
inactive: [6] 99 % of control | [7] 100 % of control | [8] 102 % of control

NC(=O)CCCSC1=CC(=O)c2ccccc2C1=O
inactive: dose: 3.12 mg/kg/injection, schedule: Q04DX002 (ip), vehicle: saline with Tween-80 104 % of control | dose: 6.25 mg/kg/injection, schedule: Q04DX002 (ip), vehicle: saline with Tween-80 101 % of control | dose: 12.5 mg/kg/injection, schedule: Q04DX002 (ip), vehicle: saline with Tween-80 111 % of control and 114 % of control

Cc1ccc(NC(O)(C(F)(F)F)C(F)(F)F)cc1
inactive: [9] 100 % of control | dose: 200.0 mg/kg/injection, schedule: Q04DX002 (ip), vehicle: Klucel (hydroxypropylcellulose) (HPC) 97 % of control | dose: 400.0 mg/kg/injection, schedule: Q04DX002 (ip), vehicle: Klucel (hydroxypropylcellulose) (HPC) 96 % of control

CC(C)n1c(=O)nc(-c2ccccc2)c2cc3c(cc21)OCO3
inactive: dose: 50.0 mg/kg/injection, schedule: Q01DX009 (ip), vehicle: Klucel (hydroxypropylcellulose) (HPC) 106 % of control | dose: 100.0 mg/kg/injection, schedule: Q01DX009 (ip), vehicle: Klucel (hydroxypropylcellulose) (HPC) 108 % of control | [10] 91 % of control

CN(C)S(=O)(=O)c1ccccc1N=C=S
inactive: [11] 117 % of control | [12] 117 % of control

O=C1c2ccccc2C(=O)N1C(CO)Cc1ccccc1 (configuration not stated)
inactive: [11] 100 % of control | [12] 95 % of control | [13] 108 % of control

O=c1c2ccccc2nc2n1CCC/C2=C\c1ccc2c(c1)OCO2
inactive: dose: 91.75 mg/kg/injection, schedule: Q04DX002 (ip), vehicle: Klucel (hydroxypropylcellulose) (HPC) 100 % of control | dose: 183.5 mg/kg/injection, schedule: Q04DX002 (ip), vehicle: Klucel (hydroxypropylcellulose) (HPC) 103 % of control | dose: 367.0 mg/kg/injection, schedule: Q04DX002 (ip), vehicle: Klucel (hydroxypropylcellulose) (HPC) 102 % of control

CCCCNC(C)(C)C(SSSC(c1cccs1)C(C)(C)NCCCC)c1cccs1 (configuration not stated)
inactive: [4] 121 % of control | [5] 120 % of control | [14] 101 % of control | dose: 200.0 mg/kg/injection, schedule: Q01DX005 (ip), vehicle: saline with Tween-80 123 % of control | [15] 105 % of control | [16] 105 % of control

COc1ccc2c(OC)c(CC(=O)C(C)(C)O)c(=O)n(C)c2c1OC
inactive: dose: 19.0 mg/kg/injection, schedule: Q01DX005 (ip), vehicle: Klucel (hydroxypropylcellulose) (HPC) 96 % of control | dose: 38.0 mg/kg/injection, schedule: Q01DX005 (ip), vehicle: Klucel (hydroxypropylcellulose) (HPC) 92 % of control | dose: 76.0 mg/kg/injection, schedule: Q01DX005 (ip), vehicle: Klucel (hydroxypropylcellulose) (HPC) 88 % of control | dose: 152.0 mg/kg/injection, schedule: Q01DX005 (ip), vehicle: Klucel (hydroxypropylcellulose) (HPC) 91 % of control

CC1=NN(C(=O)c2ccncc2)C(=O)C1N=Nc1ccc(C)cc1 (configuration not stated)
inactive: [11] 105 % of control | [12] 101 % of control | [13] 99 % of control

NNC(=O)CNC(=O)Nc1cccc(C(F)(F)F)c1
inactive: [11] 100 % of control | [12] 92 % of control | [13] 100 % of control

CCOC(=O)N1Cc2cc3ccccc3nc2C1CC(=O)O (configuration not stated)
inactive: [10] 95 % of control | dose: 400.0 mg/kg/injection, schedule: Q01DX009 (ip), vehicle: Klucel (hydroxypropylcellulose) (HPC) 104 % of control

C=CC(=NC(C)C)N(C)c1ccccc1
inactive: dose: 6.25 mg/kg/injection, schedule: Q01DX009 (ip), vehicle: saline 101 % of control | dose: 12.5 mg/kg/injection, schedule: Q01DX009 (ip), vehicle: saline 96 % of control | dose: 25.0 mg/kg/injection, schedule: Q01DX009 (ip), vehicle: saline 96 % of control

Cc1nc2sc3cc4ccccc4cc3n2c(=O)c1CN1CCCCC1
inactive: dose: 25.0 mg/kg/injection, schedule: Q04DX002 (ip), vehicle: Klucel (hydroxypropylcellulose) (HPC) 98 % of control | dose: 50.0 mg/kg/injection, schedule: Q04DX002 (ip), vehicle: Klucel (hydroxypropylcellulose) (HPC) 113 % of control | [9] 113 % of control

CN(C)N1C(=O)SCC(c2ccccc2)(c2ccccc2)C1=O
inactive: [17] 97 % of control | [18] 96 % of control | [19] 86 % of control

C1=C(/C=C2\CCCc3c(-c4ccccc4)cc(-c4ccccc4)[o+]c32)CCC/C1=C\C1=C2OC(c3ccccc3)=CC(c3ccccc3)=C2CCC1
inactive: [6] 102 % of control | [7] 93 % of control | [8] 87 % of control

Cn1c(=S)[nH]c2c(c1=O)CCCN2
inactive: dose: 100.0 mg/kg/injection, schedule: Q01DX001 (ip), vehicle: Klucel (hydroxypropylcellulose) (HPC) 101 % of control | dose: 200.0 mg/kg/injection, schedule: Q01DX001 (ip), vehicle: Klucel (hydroxypropylcellulose) (HPC) 99 % of control | dose: 400.0 mg/kg/injection, schedule: Q01DX001 (ip), vehicle: Klucel (hydroxypropylcellulose) (HPC) 95 % of control

OC(CCl)COn1nnc2ccccc21 (configuration not stated)
inactive: dose: 25.0 mg/kg/injection, schedule: Q01DX005 (ip), vehicle: saline with Tween-80 100 % of control | [4] 102 % of control | [5] 100 % of control | [14] 98 % of control | [15] 99 % of control | [16] 94 % of control

COc1cc(CC2C(=O)OCC2Cc2cc(OC)c3c(c2)C(CO)C(c2ccc(O)c(OC)c2)O3)ccc1O (configuration not stated)
inactive: dose: 5.0 mg/kg/injection, schedule: Q01DX009 (ip), vehicle: saline with Tween-80 102 % of control | dose: 10.0 mg/kg/injection, schedule: Q01DX009 (ip), vehicle: saline with Tween-80 118 % of control | dose: 20.0 mg/kg/injection, schedule: Q01DX009 (ip), vehicle: saline with Tween-80 101 % of control | dose: 40.0 mg/kg/injection, schedule: Q01DX009 (ip), vehicle: saline with Tween-80 108 % of control

C=CCC1=C(C2CO2)C(=O)c2ccccc2C1=O (configuration not stated)
inactive: dose: 6.25 mg/kg/injection, schedule: Q01DX005 (ip), vehicle: Klucel (hydroxypropylcellulose) (HPC) 99 % of control | dose: 12.5 mg/kg/injection, schedule: Q01DX005 (ip), vehicle: Klucel (hydroxypropylcellulose) (HPC) 99 % of control

c1ccc2c(c1)Nc1ccc(CN3CCOCC3)cc1S2
inactive: [17] 104 % of control | [18] 97 % of control | [19] 92 % of control

NC(=O)N/N=C1/CCC(O)CC1CC(=O)O (configuration not stated)
inactive: dose: 50.0 mg/kg/injection, schedule: Q01DX005 (ip), vehicle: Klucel (hydroxypropylcellulose) (HPC) 103 % of control | dose: 100.0 mg/kg/injection, schedule: Q01DX005 (ip), vehicle: Klucel (hydroxypropylcellulose) (HPC) 100 % of control | dose: 200.0 mg/kg/injection, schedule: Q01DX005 (ip), vehicle: Klucel (hydroxypropylcellulose) (HPC) 97 % of control

O=C(NC12OC3CC(CC(C3)O1)O2)NC12OC3CC(CC(C3)O1)O2
inactive: dose: 100.0 mg/kg/injection, schedule: Q01DX001 (ip), vehicle: saline with Tween-80 100 % of control | dose: 200.0 mg/kg/injection, schedule: Q01DX001 (ip), vehicle: saline with Tween-80 100 % of control | dose: 400.0 mg/kg/injection, schedule: Q01DX001 (ip), vehicle: saline with Tween-80 111 % of control

CN(C)CCc1ccccn1
inactive: [1] 101 % of control | [2] 115 % of control | [3] 94 % of control
